Measurements from PubChem BioAssay AID1259411 (Chemical Carcinogenesis Research Information System (CCRIS), 2018).
The source made the active and inactive calls. No rule for the calls is given here.

Tested on: rodent carcinogenicity bioassays, tumor incidence
Experiment: CCRIS carcinogenicity studies
Conditions: Dose: 0, Dose: 0
Source text: The CCRIS database contains chemical records with carcinogenicity, mutagenicity, tumor promotion, and tumor inhibition test results. It was developed by the National Cancer Institute (NCI). Data are derived from studies cited in primary journals, current awareness tools, NCI reports, and other sources. Test results have been reviewed by experts in carcinogenesis and mutagenesis.
CCRIS provides historical information from the years 1985 - 2011. It is no longer updated.
This is an archive assay for CCRIS carcinogenicity studies.

ClCC(Cl)CCl
carcinogen call (Species: GUPPIE, Strain/Sex: FEMALE, Route: AQUARIUM WATER, 4.5, 9, 18 MG/L FOR 9 MO THEN IN CLEAN WATER FOR 7 MO (STUDY DURATION: 16 MO), 4.5, 9, 18 MG/L FOR 9 MO THEN IN CLEAN WATER FOR 7 MO (STUDY DURATION: 16 MO), Tumor Site: Type of Lesion: LIVER: CHOLANGIOCARCINOMA, HEPATOCELLULAR ADENOMA OR CARCINOMA): active; positive
carcinogen call (Species: GUPPIE, Strain/Sex: FEMALE, Route: AQUARIUM WATER, 4.5, 9, 18 MG/L FOR 16 MO (STUDY DURATION: 16 MO), 4.5, 9, 18 MG/L FOR 16 MO (STUDY DURATION: 16 MO), Tumor Site: Type of Lesion: LIVER: HEPATOCELLULAR ADENOMA OR CARCINOMA, CHOLANGIOCARCINOMA): active; positive
carcinogen call (Species: GUPPIE, Strain/Sex: MALE, Route: AQUARIUM WATER, 4.5, 9, 18 MG/L FOR 9 MO THEN IN CLEAN WATER FOR 7 MO (STUDY DURATION: 16 MO), 4.5, 9, 18 MG/L FOR 9 MO THEN IN CLEAN WATER FOR 7 MO (STUDY DURATION: 16 MO), Tumor Site: Type of Lesion: LIVER: HEPATOCELLULAR ADENOMA OR CARCINOMA): active; positive
carcinogen call (Species: GUPPIE, Strain/Sex: MALE, Route: AQUARIUM WATER, 4.5, 9, 18 MG/L FOR 16 MO (STUDY DURATION: 16 MO), 4.5, 9, 18 MG/L FOR 16 MO (STUDY DURATION: 16 MO), Tumor Site: Type of Lesion: LIVER: HEPATOCELLULAR ADENOMA OR CARCINOMA): active; positive
carcinogen call (Species: MEDAKA, Strain/Sex: FEMALE, Route: AQUARIUM WATER, 4.5, 9, 18 MG/L FOR 9 MO THEN IN CLEAN WATER FOR 4 MO (STUDY DURATION: 13 MO), 4.5, 9, 18 MG/L FOR 9 MO THEN IN CLEAN WATER FOR 4 MO (STUDY DURATION: 13 MO), Tumor Site: Type of Lesion: LIVER: CHOLANGIOCARCINOMA, HEPATOCELLULAR ADENOMA OR CARCINOMA, GALL BLADDER: ADENOMA): active; positive
carcinogen call (Species: MEDAKA, Strain/Sex: FEMALE, Route: AQUARIUM WATER, 4.5, 9, 18 MG/L FOR 13 MO (STUDY DURATION: 13 MO), 4.5, 9, 18 MG/L FOR 13 MO (STUDY DURATION: 13 MO), Tumor Site: Type of Lesion: LIVER: CHOLANGIOCARCINOMA, HEPATOCELLULAR ADENOMA OR CARCINOMA, HEPATOCHOLANGIOCARCINOMA, GALL BLADDER: ADENOMA): active; positive
carcinogen call (Species: MEDAKA, Strain/Sex: MALE, Route: AQUARIUM WATER, 4.5, 9, 18 MG/L FOR 9 MO THEN IN CLEAN WATER FOR 4 MO (STUDY DURATION: 13 MO), 4.5, 9, 18 MG/L FOR 9 MO THEN IN CLEAN WATER FOR 4 MO (STUDY DURATION: 13 MO), Tumor Site: Type of Lesion: LIVER: CHOLANGIOCARCINOMA, HEPATOCELLULAR ADENOMA OR CARCINOMA, GALL BLADDER: ADENOMA): active; positive
carcinogen call (Species: MEDAKA, Strain/Sex: MALE, Route: AQUARIUM WATER, 4.5, 9, 18 MG/L FOR 13 MO (STUDY DURATION: 13 MO), 4.5, 9, 18 MG/L FOR 13 MO (STUDY DURATION: 13 MO), Tumor Site: Type of Lesion: LIVER: CHOLANGIOCARCINOMA, HEPATOCELLULAR ADENOMA OR CARCINOMA, GALL BLADDER: ADENOMA, HEPATOCHOLANGIOCARCINOMA): active; positive
carcinogen call (Species: MOUSE, Strain/Sex: B6C3F1/FEMALE, Route: GAVAGE, 6, 20, 60 MG/KG BW IN CORN OIL 5 D/WK FOR 104 WK (STUDY DURATION: 2 YR), 6, 20, 60 MG/KG BW IN CORN OIL 5 D/WK FOR 104 WK (STUDY DURATION: 2 YR), Tumor Site: Type of Lesion: HARDERIAN GLAND: ADENOMA, LIVER: HEPATOCELLULAR ADENOMA, PHARYNX: SQUAMOUS CELL CARCINOMA, FORESTOMACH: SQUAMOUS CELL PA, Tumor Site: Type of Lesion: HARDERIAN GLAND: ADENOMA, LIVER: HEPATOCELLULAR ADENOMA, PHARYNX: SQUAMOUS CELL CARCINOMA, FORESTOMACH: SQUAMOUS CELL PA): active; positive
carcinogen call (Species: MOUSE, Strain/Sex: B6C3F1/MALE, Route: GAVAGE, 6, 20, 60 MG/KG BW IN CORN OIL 5 D/WK FOR 104 WK (STUDY DURATION: 2 YR), 6, 20, 60 MG/KG BW IN CORN OIL 5 D/WK FOR 104 WK (STUDY DURATION: 2 YR), Tumor Site: Type of Lesion: HARDERIAN GLAND: ADENOMA, LIVER: HEPATOCELLULAR ADENOMA, FORESTOMACH: SQUAMOUS CELL PAPILLOMA, SQUAMOUS CELL CARCINOMA, Tumor Site: Type of Lesion: HARDERIAN GLAND: ADENOMA, LIVER: HEPATOCELLULAR ADENOMA, FORESTOMACH: SQUAMOUS CELL PAPILLOMA, SQUAMOUS CELL CARCINOMA): active; positive
carcinogen call (Species: RAT, Strain/Sex: F344/FEMALE, Route: GAVAGE, 3, 10, 30 MG/KG BW IN CORN OIL 5 D/WK FOR 104 WK (STUDY DURATION: 2 YR), 3, 10, 30 MG/KG BW IN CORN OIL 5 D/WK FOR 104 WK (STUDY DURATION: 2 YR), Tumor Site: Type of Lesion: CLITORAL GLAND: ADENOMA, CARCINOMA, MAMMARY GLAND: CARCINOMA, PHARYNX: SQUAMOUS CELL CARCINOMA, FORESTOMACH: SQUAMOUS CE, Tumor Site: Type of Lesion: CLITORAL GLAND: ADENOMA, CARCINOMA, MAMMARY GLAND: CARCINOMA, PHARYNX: SQUAMOUS CELL CARCINOMA, FORESTOMACH: SQUAMOUS CE): active; positive
carcinogen call (Species: RAT, Strain/Sex: F344/MALE, Route: GAVAGE, 3, 10, 30 MG/KG BW IN CORN OIL 5 D/WK FOR 104 WK (STUDY DURATION: 2 YR), 3, 10, 30 MG/KG BW IN CORN OIL 5 D/WK FOR 104 WK (STUDY DURATION: 2 YR), Tumor Site: Type of Lesion: KIDNEY (RENAL TUBULE): ADENOMA, PANCREAS: ADENOMA, PHARYNX: SQUAMOUS CELL CARCINOMA, PREPUTIAL GLAND: ADENOMA, CARCINOMA, Tumor Site: Type of Lesion: KIDNEY (RENAL TUBULE): ADENOMA, PANCREAS: ADENOMA, PHARYNX: SQUAMOUS CELL CARCINOMA, PREPUTIAL GLAND: ADENOMA, CARCINOMA): active; positive

O=[N+]([O-])c1ccc(Nc2ccc(Nc3ccccc3)c(S(=O)(=O)O)c2)c([N+](=O)[O-])c1
carcinogen call (Species: MOUSE, Strain/Sex: B6C3F1/FEMALE, Route: GAVAGE, 250, 500 MG/KG IN CORN OIL 5D/WK FOR 103 WK (STUDY DURATION: 104 WK), 250, 500 MG/KG IN CORN OIL 5D/WK FOR 103 WK (STUDY DURATION: 104 WK)): inactive; negative
carcinogen call (Species: MOUSE, Strain/Sex: B6C3F1/MALE, Route: GAVAGE, 125, 250 MG/KG IN CORN OIL 5D/WK FOR 103 WK (STUDY DURATION: 104 WK), 125, 250 MG/KG IN CORN OIL 5D/WK FOR 103 WK (STUDY DURATION: 104 WK)): inactive; negative
carcinogen call (Species: RAT, Strain/Sex: F344/FEMALE, Route: GAVAGE, 375, 750 MG/KG IN CORN OIL 5D/WK FOR 103 WK (STUDY DURATION: 105 WK), 375, 750 MG/KG IN CORN OIL 5D/WK FOR 103 WK (STUDY DURATION: 105 WK), Tumor Site: Type of Lesion: KIDNEY: TRANSITIONAL CELL CARCINOMA): active; positive
carcinogen call (Species: RAT, Strain/Sex: F344/MALE, Route: GAVAGE, 375 MG/KG IN CORN OIL 5D/WK FOR 103 WK (STUDY DURATION: 104 WK)): inactive; negative

Cc1cnc2ccc3c(nc(NO)n3C)c2n1
carcinogen call (Species: RAT, Strain/Sex: ACI/SEG/MALE, Route: INTRAPERITONEAL, 50 UMOL/KG BW 2X/WK FOR 10 WK BEGINNING AT 3 D OF AGE (STUDY DURATION: 68 WK), Tumor Site: Type of Lesion: SOFT TISSUE: TUMOR): active; positive
